Measured values taken from patent US9751875B2, “Quinine compounds, and optical isomers, preparation method and medical use thereof” (BEIJING FSWELCOME TECHNOLOGY DEVELOPMENT CO., LTD., priority 2013, dated 2017).
Like-named read-outs stand apart in the source and are kept apart here.

How the values were obtained:
[1] = tested on: m1, m2 and m3 subtypes of M receptor; experiment: Competitive [3H]-QNB binding on membranes of CHO cells transfected with m1, m2, m3; selectivity on subtypes of M receptor; settings: ratio of Ki, n = 6
[2] = tested on: tracheal smooth muscle from guinea pigs (contraction induced by 3 × 10^−6 mol/L of CCh); experiment: Antagonism in vitro of contraction of isolated tracheal smooth muscle from guinea pigs induced by carbachol (CCh); assay type: cell-based, guinea pig
[3] = tested on: tracheal smooth muscle from guinea pigs (contraction induced by 3 × 10^−6 mol/L of CCh); experiment: as above; assay type: cell-based, guinea pig; settings: cumulative dosing
Source text: Preparation of the Isolated Tracheal Smooth Muscle Specimen from a Guinea Pig:
After a guinea pig was narcotized with urethane, the trachea between the throat and carina of the guinea pig was taken out rapidly, and placed in the Krebs-Henseleit (K-H) solution (composition (g/L): NaCl 6.92, KCl 0.35, CaCl2 0.28, KH2PO4 0.16, MgSO4.7H2O 0.4568, NaHCO3 2.1, Glucose 2.0) with a mixture gas of 5% CO2 and 95% O2 purged. After loose connective tissues and fats around the trachea were separated, the trachea was cut into trachea pieces having a width of about 3 mm and a length of 20 mm by a surgical scissor, with both ends of the trachea piece ligated with 4˜0 silk suture, and then placed into a thermostatic bath containing 5 ml of K—H solution (pH 7.4) at 37° C., with the mixture gas of 5% CO2 and 95% O2 continuously purged. A muscle tension transducer was connected to the upper end so as to apply 1.0 g of resting tension to the specimen, the change of the tension was recorded, the culture solution was replaced every 20 min, and the test was started after being balanced for 60 min.
Administration method: After the trachea piece was stabilized, 3×10^−6 mol/L of CCh was added into a bath, and after the contractile tension of the trachea piece reached a peak level, the example compounds, ipratropium bromide and tiotropium bromide were added into a Magnus bath by a cumulative dosing regimen with a dosage of 10^−9˜10^−5 mol, respectively, and the diastolic condition of the trachea piece was observed: if no response occurred (below the threshold concentration), a next dosage was continued to be added in sequence; if response occurred, after it reached a diastolic plateau, a next dosage was further added. The above operation was repeated until the contractile curve reached the minimum value. Finally, 10^−6 mol/L of isoprenaline was added so that the maximum relaxation would be reached and the curve was recorded.
Statistical approach: The result was expressed as mean ±standard deviation, and counted by Sigma Stat statistical package. The data was analyzed by using variance analysis, the comparison among means of a plurality of specimen was performed by using Student-Newman-Keuls(SNK) test; statistical significant level α=0.05 (bilateral).
Compounds shown in Table 5 were further prepared according to the present invention, and their IC50 […] of resistance to the contraction of tracheal smooth muscle from guinea pigs induced by a concentration of 3×10^−6 mol/L of CCh was determined.

[4] = tested on: bronchus in guinea pigs (contractile response induced by Mch); experiment: Antagonism of contractile response of bronchus in guinea pigs induced by methacholine (Mch); airway resistance and pulmonary dynamic compliance; assay type: in vivo, guinea pig; settings: Mch 10 μg/kg iv after 30 min; for Cdyn(ml/cm H2O) / Raw (cm H2O/ml/s): Mean ± S.E.M
Source text: Determination of tidal volume, airway flow rate, and transpulmonary pressure: 1.5 g/kg of urethane was intraperitoneally injected to narcotize the guinea pig. The guinea pig was fixed supinely and treated with tracheal intubation, and the external jugular vein was separated and an indwelling needle was inserted; the guinea pig was enclosed into a body plethysmograph, a blunt needle for intubation into thoracic cavity was inserted between ribs 4˜5 of the prothorax of the guinea pig, and the intrathoracic pressure could be measured (with a negative value of a water column of a water manometer and a fluctuation with the breath of the guinea pig as marks). After stabilization, the values of the tidal volume, airway flow rate and transpulmonary pressure of the guinea pig prior to administration of Mch were recorded by a MedLab biological signal collection and processing system as base values. 10 μg/kg body weight of Mch was intravenously injected. The changes of the airway flow rate, tidal volume and transpulmonary pressure of the guinea pig within 5 minutes were observed. Calculation of Raw and Cdyn: the changes of the increased percentage of Raw value and the decreased percentage of Cdyn after […] of Mch were calculated.
Calculation formulas of Raw and Cdyn were respectively: […]
Dose-effect relationship: For each of the example compounds, 27 guinea pigs were randomly divided into […]: a solvent control group with […], a group with 1 μg/kg of the example compounds 4, 10, 14, and 26, a group with 3 μg/kg of the example compounds 4, 10, 14, and 26 and a group with 10 μg/kg of the example compounds 4, 10, 14, and 26; after 30 min from the dropping of the above concentration of drugs in the airway, 10 μg/kg body weight of Mch was intravenously injected for excitation, and airway resistance (Raw) and pulmonary dynamic compliance (Cdyn) within 5 min were determined. […]

[5] = read-out: IC50 (μM), antagonism in vitro against the contraction of the tracheal smooth muscle induced by CCh, 3 × 10^−6 mol/L of CCh
[6] = Cavia porcellus, read-out: IC50 (μM), antagonism in vitro against the contraction of the tracheal smooth muscle induced by CCh, 3 × 10^−6 mol/L of CCh

## OC(CO[C@H]1C[N+]2(CCCOc3ccccc3)CCC1CC2)(c1ccccc1)C1CCCC1.[Br-] (stereo partly drawn) [Example 1, (2R,3S)-3-[(2-cyclopentyl-2-hydroxyl-2-phenyl)ethoxyl]-1-(3-phenoxypropyl)-1-azabicyclo[2,2,2]octane bromide]
[1]
  Selectivity m1/m2, Mx/My = Ki(y)/Ki(x): 34.13
  Selectivity m1/m3, Mx/My = Ki(y)/Ki(x): 0.358
  Selectivity m2/m3, Mx/My = Ki(y)/Ki(x): 0.0105
[2]
  Onset time: 6.89 min
  Time for eliminating inhibition effect (min): more than 300 min
[3]; [5]
  IC50: 0.767 µM

## OC(CO[C@@H]1C[N+]2(CCCOc3ccccc3)CCC1CC2)(c1ccccc1)C1CCCC1.[Br-] (stereo partly drawn) [Example 4, (2R,3R)-3-[(2-cyclopentyl-2-hydroxyl-2-phenyl)ethoxyl]-1-(3-phenoxypropyl)-1-azabicyclo[2,2,2]octane bromide]
[1]
  Selectivity m1/m2, Mx/My = Ki(y)/Ki(x): 30.2
  Selectivity m1/m3, Mx/My = Ki(y)/Ki(x): 0.332
  Selectivity m2/m3, Mx/My = Ki(y)/Ki(x): 0.011
[2]
  Onset time: 6.37 min
  Time for eliminating inhibition effect (min): more than 300 min
[4]; 1 μg/kg dropped in the airway
  inhibition ratio against the decrease of pulmonary dynamic compliance: 11.2%
  inhibition ratio against the increase of airway resistance: 64.2%
  Cdyn(ml/cm H2O): 0.105 ± 0.012 ml/cm H2O
  Raw (cm H2O/ml/s): 0.733 ± 0.088 cm H2O/ml/s
[4]; 3 μg/kg dropped in the airway
  inhibition ratio against the decrease of pulmonary dynamic compliance: 46.6%
  inhibition ratio against the increase of airway resistance: 86.1%
  Cdyn(ml/cm H2O): 0.137 ± 0.015 ml/cm H2O
  Raw (cm H2O/ml/s): 0.552 ± 0.060 cm H2O/ml/s
[4]; 10 μg/kg dropped in the airway
  inhibition ratio against the decrease of pulmonary dynamic compliance: 50.0%
  inhibition ratio against the increase of airway resistance: 90.8%
  Cdyn(ml/cm H2O): 0.196 ± 0.017 ml/cm H2O
  Raw (cm H2O/ml/s): 0.513 ± 0.071 cm H2O/ml/s
[3]; [5]
  IC50: 0.0278 µM

## C[N+]1(C)CCC(OC(=O)C(c2ccccc2)c2ccccc2)CC1.[I-] [Example 4-DAMP, 4-DAMP, reference compound]
[1]
  Selectivity m1/m2, Mx/My = Ki(y)/Ki(x): 1.66
  Selectivity m1/m3, Mx/My = Ki(y)/Ki(x): 0.095
  Selectivity m2/m3, Mx/My = Ki(y)/Ki(x): 0.058

## O[C@@](COC1C[N+]2(CCCOc3ccccc3)CCC1CC2)(c1ccccc1)C1CCCCC1.[Br-] (stereo partly drawn) [Example 10, (2R,3R)-3-[(2-cyclohexyl-2-hydroxyl-2-phenyl)ethoxyl]-1-(3-phenoxypropyl)-1-azabicyclo[2,2,2]octane bromide]
[2]
  Onset time: 6.24 min
  Time for eliminating inhibition effect (min): more than 300 min
[4]; 1 μg/kg dropped in the airway
  inhibition ratio against the decrease of pulmonary dynamic compliance: 10.9%
  inhibition ratio against the increase of airway resistance: 63.7%
  Cdyn(ml/cm H2O): 0.098 ± 0.009 ml/cm H2O
  Raw (cm H2O/ml/s): 0.745 ± 0.089 cm H2O/ml/s
[4]; 3 μg/kg dropped in the airway
  inhibition ratio against the decrease of pulmonary dynamic compliance: 45.9%
  inhibition ratio against the increase of airway resistance: 84.5%
  Cdyn(ml/cm H2O): 0.135 ± 0.007 ml/cm H2O
  Raw (cm H2O/ml/s): 0.563 ± 0.057 cm H2O/ml/s
[4]; 10 μg/kg dropped in the airway
  inhibition ratio against the decrease of pulmonary dynamic compliance: 49.8%
  inhibition ratio against the increase of airway resistance: 91.3%
  Cdyn(ml/cm H2O): 0.189 ± 0.015 ml/cm H2O
  Raw (cm H2O/ml/s): 0.531 ± 0.092 cm H2O/ml/s
[3]; [6]
  IC50: 0.0227 µM

## OC(CO[C@H]1C[N+]2(CCCOc3ccccc3)CCC1CC2)(c1ccccc1)C1CCC1.[Br-] (stereo partly drawn) [Example 14, (2S,3S)-3-[(2-cyclobutyl-2-hydroxyl-2-phenyl)ethoxyl]-1-(3-phenoxypropyl)-1-azabicyclo[2,2,2]octane bromide]
[1]
  Selectivity m1/m2, Mx/My = Ki(y)/Ki(x): 25.6
  Selectivity m1/m3, Mx/My = Ki(y)/Ki(x): 0.205
  Selectivity m2/m3, Mx/My = Ki(y)/Ki(x): 0.008
[2]
  Onset time: 6.34 min
  Time for eliminating inhibition effect (min): more than 300 min
[4]; 1 μg/kg dropped in the airway
  inhibition ratio against the decrease of pulmonary dynamic compliance: 11.0%
  inhibition ratio against the increase of airway resistance: 63.5%
  Cdyn(ml/cm H2O): 0.101 ± 0.010 ml/cm H2O
  Raw (cm H2O/ml/s): 0.719 ± 0.082 cm H2O/ml/s
[4]; 3 μg/kg dropped in the airway
  inhibition ratio against the decrease of pulmonary dynamic compliance: 46.1%
  inhibition ratio against the increase of airway resistance: 85.4%
  Cdyn(ml/cm H2O): 0.141 ± 0.014 ml/cm H2O
  Raw (cm H2O/ml/s): 0.560 ± 0.062 cm H2O/ml/s
[4]; 10 μg/kg dropped in the airway
  inhibition ratio against the decrease of pulmonary dynamic compliance: 49.5%
  inhibition ratio against the increase of airway resistance: 90.5%
  Cdyn(ml/cm H2O): 0.207 ± 0.018 ml/cm H2O
  Raw (cm H2O/ml/s): 0.504 ± 0.073 cm H2O/ml/s
[3]; [5]
  IC50: 4.87 µM

## OC(CO[C@@H]1C[N+]2(CCCOc3ccccc3)CCC1CC2)(c1ccccc1)C1CCC1.[Br-] (stereo partly drawn) [Example 16, (2R,3R)-3-[(2-cyclobutyl-2-hydroxyl-2-phenyl)ethoxyl]-1-(3-phenoxypropyl)-1-azabicyclo[2,2,2]octane bromide]
[1]
  Selectivity m1/m2, Mx/My = Ki(y)/Ki(x): 13.5
  Selectivity m1/m3, Mx/My = Ki(y)/Ki(x): 0.67
  Selectivity m2/m3, Mx/My = Ki(y)/Ki(x): 0.037
[2]
  Onset time: 6.38 min
  Time for eliminating inhibition effect (min): more than 300 min
[3]; [5]
  IC50: 0.0573 µM

## O[C@@](CO[C@@H]1C[N+]2(CCOc3ccccc3)CCC1CC2)(c1ccccc1)C1CCCC1.[Br-] [Example 26, (2R,3R)-3-[(2-cyclopentyl-2-hydroxyl-2-phenyl)ethoxyl]-1-(2-phenoxyethyl)-1-azabicyclo[2,2,2]octane bromide]
[2]
  Onset time: 6.14 min
  Time for eliminating inhibition effect (min): more than 300 min
[4]; 1 μg/kg dropped in the airway
  inhibition ratio against the decrease of pulmonary dynamic compliance: 11.0%
  inhibition ratio against the increase of airway resistance: 64.4%
  Cdyn(ml/cm H2O): 0.103 ± 0.014 ml/cm H2O
  Raw (cm H2O/ml/s): 0.739 ± 0.085 cm H2O/ml/s
[4]; 3 μg/kg dropped in the airway
  inhibition ratio against the decrease of pulmonary dynamic compliance: 47.1%
  inhibition ratio against the increase of airway resistance: 87.2%
  Cdyn(ml/cm H2O): 0.143 ± 0.016 ml/cm H2O
  Raw (cm H2O/ml/s): 0.531 ± 0.063 cm H2O/ml/s
[4]; 10 μg/kg dropped in the airway
  inhibition ratio against the decrease of pulmonary dynamic compliance: 49.9%
  inhibition ratio against the increase of airway resistance: 92.1%
  Cdyn(ml/cm H2O): 0.205 ± 0.018 ml/cm H2O
  Raw (cm H2O/ml/s): 0.493 ± 0.083 cm H2O/ml/s
[3]; [6]
  IC50: 0.0235 µM

## CC[N+](CC)(CC)CCOc1cccc(OCC[N+](CC)(CC)CC)c1OCC[N+](CC)(CC)CC [Gallamine, reference compound]
[1]
  Selectivity m1/m2, Mx/My = Ki(y)/Ki(x): 0.011
  Selectivity m1/m3, Mx/My = Ki(y)/Ki(x): 0.676
  Selectivity m2/m3, Mx/My = Ki(y)/Ki(x): 60.26

## CN1CCN(CC(=O)N2c3ccccc3C(=O)Nc3cccnc32)CC1 [Pirenzepine, reference compound]
[1]
  Selectivity m1/m2, Mx/My = Ki(y)/Ki(x): 169.82
  Selectivity m1/m3, Mx/My = Ki(y)/Ki(x): 13.49
  Selectivity m2/m3, Mx/My = Ki(y)/Ki(x): 0.079

## (2R,3S),(2S,3R)-3-[(2-cyclopentyl-2-hydroxyl-2-phenyl)ethoxyl]-1-(3-phenoxypropyl)-1-azabicyclo[2,2,2]octane bromide [Example 5]
[1]
  Selectivity m1/m2, Mx/My = Ki(y)/Ki(x): 45.6
  Selectivity m1/m3, Mx/My = Ki(y)/Ki(x): 0.502
  Selectivity m2/m3, Mx/My = Ki(y)/Ki(x): 0.011
[2]
  Onset time: 7.01 min
  Time for eliminating inhibition effect (min): more than 300 min
[3]; 3 × 10^−6 mol/L of CCh, read-out: IC50 (μM), antagonism in vitro against the contraction of the tracheal smooth muscle induced by CCh
  IC50: 1.03 µM
